This passage reports TGI results from PubChem BioAssay (NCI).

Each structure is given as a SMILES string.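 Grown in 96-well plates, cells were treated for 48 hours with each compound at five concentrations. Insufficient inhibition: endpoint recorded as highest concentration tested. TGI marks complete inhibition of growth.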 Some results are limits rather than exact numbers.

Some test systems named below: CAKI-1 renal; COLO 205 colon; DU-145 prostate; HCC-2998 colon; HCT-116 colon; HOP-92 NSCLC; HT29 colon; KM12 colon; MALME-3M melanoma; MDA-MB-435; NCI-H23 lung; OVCAR-4 ovarian; OVCAR-5 ovarian; OVCAR-8 ovarian; SF-295 CNS; SN12C renal; SR leukemia; T-47D breast.
What all share (assay): NCI tumour cell line growth inhibition, 48 h

As to `NC(N)=N/N=C/c1c(-c2ccc([N+](=O)[O-])cc2)nc2n1CCS2`, the TGI in the assay on CAKI-1 renal turned out to be 34.4 µM; in the assay with COLO 205 colon, 7.8 µM; in the assay on DU-145 prostate it was 28.1 µM; in the assay on HCC-2998 colon, 19.7 µM; in the assay with HCT-116 colon, 23 µM; in the assay with HOP-92 NSCLC, 40.5 µM. In addition, the TGI came out at 31 µM with HT29 colon; 21.7 µM in the assay on KM12 colon; 36.6 µM in the assay with MALME-3M melanoma; 43.5 µM with MDA-MB-435; 31.3 µM in the assay on NCI-H23 lung; 27.7 µM in the assay on OVCAR-4 ovarian. Also, the TGI was 28 µM in the assay on OVCAR-5 ovarian; 29.2 µM in the assay with OVCAR-8 ovarian; 36.7 µM with SF-295 CNS; 19.2 µM with SN12C renal; 5.71 µM in the assay on SR leukemia; 16.3 µM with T-47D breast.

Turning to `CC(=O)OC1COC(n2c(-c3ccc(Cl)cc3)cc(-c3ccccc3)c(C#N)c2=S)C(OC(C)=O)C1OC(C)=O` (stereo not given), the TGI in the assay with CAKI-1 renal is 50 µM; in the assay on COLO 205 colon, > 64.2 µM; in the assay on DU-145 prostate, 41.6 µM; with HCC-2998 colon, > 90.3 µM; in the assay with HCT-116 colon, > 51.7 µM; in the assay with HOP-92 NSCLC, 28.8 µM. The TGI in the assay on HT29 colon is > 64.6 µM; with KM12 colon, > 100 µM; in the assay on MALME-3M melanoma it was > 100 µM; with MDA-MB-435 it was > 62.4 µM; in the assay on NCI-H23 lung, 28.3 µM; with OVCAR-4 ovarian, 11.1 µM. The TGI in the assay with OVCAR-5 ovarian was > 100 µM; with OVCAR-8 ovarian, 21.6 µM; with SF-295 CNS it was 31.7 µM; in the assay on SN12C renal it was 31.8 µM; with SR leukemia it was > 82.8 µM; with T-47D breast, 54 µM.

Consider `N#Cc1c(Cl)c2ccccc2n2c1nc1ccccc12`, for which the TGI in the assay with CAKI-1 renal came to 51.4 µM; in the assay on COLO 205 colon, 41.9 µM; with DU-145 prostate, 80.4 µM; in the assay on HCC-2998 colon it was 40.1 µM; in the assay on HCT-116 colon it was 33.5 µM; in the assay on HOP-92 NSCLC it was 48.2 µM. For the same compound, the TGI with HT29 colon is 35.7 µM; with KM12 colon it was > 100 µM; in the assay on MDA-MB-435 it was > 100 µM; in the assay on NCI-H23 lung, 53.8 µM; with OVCAR-4 ovarian, 84 µM; with OVCAR-5 ovarian, > 100 µM. Moreover, the TGI in the assay with OVCAR-8 ovarian was 48.3 µM; in the assay with SF-295 CNS it was > 100 µM; with SN12C renal it was 67 µM; in the assay with SR leukemia it was 77.7 µM; with T-47D breast it was 46.8 µM.

Take `CC1=NN(c2nc(N)nc(CSCc3nc(N)nc(N(C)C)n3)n2)C(C)(C)C1`: the TGI in the assay with CAKI-1 renal, in the assay with COLO 205 colon, with DU-145 prostate, with HCC-2998 colon, in the assay with HCT-116 colon and in the assay with HOP-92 NSCLC was > 100 µM in each case. Further, the TGI in the assay with HT29 colon, with KM12 colon, with MDA-MB-435, in the assay on NCI-H23 lung, in the assay on OVCAR-4 ovarian and in the assay with OVCAR-5 ovarian was > 100 µM throughout. In addition, the TGI in the assay with OVCAR-8 ovarian, with SF-295 CNS, in the assay with SN12C renal, with SR leukemia and in the assay on T-47D breast was > 100 µM each time.

On to `COc1ccc(C(c2c[nH]c3ccc(Br)cc23)c2c[nH]c3ccc(Br)cc23)cc1`, for which the TGI in the assay on CAKI-1 renal came out at 1.64 µM; with COLO 205 colon, 0.347 µM; in the assay with DU-145 prostate, 1.38 µM; in the assay on HCC-2998 colon, 0.353 µM; in the assay with HCT-116 colon, 0.349 µM; in the assay with HOP-92 NSCLC, 2.07 µM. In addition, the TGI turned out to be 1.03 µM with HT29 colon; 0.468 µM with KM12 colon; 2.23 µM in the assay with MALME-3M melanoma; 0.42 µM with MDA-MB-435; 1.47 µM with NCI-H23 lung; 1.25 µM in the assay with OVCAR-4 ovarian. Moreover, the TGI was found to be 1.2 µM in the assay on OVCAR-5 ovarian, 1.17 µM with SF-295 CNS, 0.418 µM with SR leukemia and 2.67 µM in the assay with T-47D breast.

Turning to `Cc1ccc(SCC(CF)OCn2cc(F)c(=O)[nH]c2=O)cc1` (stereo not given), the TGI in the assay on CAKI-1 renal, with DU-145 prostate, with HCC-2998 colon, in the assay on HCT-116 colon, with HOP-92 NSCLC and with HT29 colon was > 100 µM each time. For the same compound, the TGI in the assay on MALME-3M melanoma, in the assay on MDA-MB-435, in the assay with NCI-H23 lung, in the assay with OVCAR-4 ovarian, with OVCAR-5 ovarian and in the assay with OVCAR-8 ovarian was > 100 µM throughout. For the same compound, the TGI with SF-295 CNS, with SR leukemia and in the assay with T-47D breast was > 100 µM in each case.

For the compound `CN(C)C(=O)Nc1cc2c3c(c1)CCCN3CCC2`, the TGI with CAKI-1 renal, in the assay on COLO 205 colon, in the assay on DU-145 prostate, in the assay with HCC-2998 colon, in the assay on HCT-116 colon and in the assay on HOP-92 NSCLC was > 10 µM in each case. In addition, the TGI in the assay on HT29 colon, in the assay on KM12 colon, in the assay with MALME-3M melanoma, in the assay on MDA-MB-435, with NCI-H23 lung and in the assay on OVCAR-4 ovarian was > 10 µM each time. Moreover, the TGI with OVCAR-8 ovarian, in the assay on SF-295 CNS, in the assay on SN12C renal, in the assay with SR leukemia and in the assay with T-47D breast was > 10 µM each time.

Turning to `OC(C/C(=N\N1CCCCC1)c1cccs1)(C(F)(F)F)C(F)(F)F`, the TGI in the assay on CAKI-1 renal, in the assay on COLO 205 colon, in the assay with DU-145 prostate, with HCC-2998 colon, in the assay on HCT-116 colon and with HOP-92 NSCLC was > 10 µM in each case. Also, the TGI in the assay with HT29 colon, with KM12 colon, in the assay on MALME-3M melanoma, with MDA-MB-435, with NCI-H23 lung and in the assay with OVCAR-4 ovarian was > 10 µM each time. Moreover, the TGI in the assay with OVCAR-8 ovarian, with SF-295 CNS, with SN12C renal, in the assay on SR leukemia and in the assay with T-47D breast was > 10 µM in each case.
